According to US7345070B2, “Peroxisome proliferator activated receptor agonists” (Eli Lilly and Company, priority 2000, dated 2008):

Columns and labels:
huPPARα = molecular target: T1, huPPARα (Homo sapiens, UniProt Q07869); assay: DNA-dependent binding (ABCD binding) using SPA technology, huPPARα; settings: SPA displacement of tritium-labeled PPARα agonist radioligand
T1 sequence (Q07869 1-468): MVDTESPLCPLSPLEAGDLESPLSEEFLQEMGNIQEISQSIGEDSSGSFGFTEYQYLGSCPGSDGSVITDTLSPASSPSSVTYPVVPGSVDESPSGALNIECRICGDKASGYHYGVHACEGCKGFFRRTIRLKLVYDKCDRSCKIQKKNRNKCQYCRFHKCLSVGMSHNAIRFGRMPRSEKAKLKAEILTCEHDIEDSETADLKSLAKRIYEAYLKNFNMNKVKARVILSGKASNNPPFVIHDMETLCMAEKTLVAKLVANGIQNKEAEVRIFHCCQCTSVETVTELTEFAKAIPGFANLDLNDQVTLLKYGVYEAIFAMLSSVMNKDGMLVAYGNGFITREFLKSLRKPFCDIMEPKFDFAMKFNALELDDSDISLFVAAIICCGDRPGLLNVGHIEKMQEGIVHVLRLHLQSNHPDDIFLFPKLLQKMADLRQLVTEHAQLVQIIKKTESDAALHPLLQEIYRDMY
T1 sequence (P19793 1-462 partner): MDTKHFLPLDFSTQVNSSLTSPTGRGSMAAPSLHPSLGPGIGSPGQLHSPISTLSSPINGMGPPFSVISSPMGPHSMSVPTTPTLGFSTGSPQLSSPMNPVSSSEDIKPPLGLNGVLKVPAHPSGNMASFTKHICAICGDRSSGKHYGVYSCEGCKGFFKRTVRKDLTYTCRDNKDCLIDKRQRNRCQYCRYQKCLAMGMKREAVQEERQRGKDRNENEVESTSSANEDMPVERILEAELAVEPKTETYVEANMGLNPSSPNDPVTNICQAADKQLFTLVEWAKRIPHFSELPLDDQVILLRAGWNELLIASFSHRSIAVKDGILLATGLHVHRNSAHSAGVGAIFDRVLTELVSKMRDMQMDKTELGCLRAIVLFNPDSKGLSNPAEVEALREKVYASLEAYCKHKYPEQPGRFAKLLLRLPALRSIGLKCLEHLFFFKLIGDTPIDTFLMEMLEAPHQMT
Experimental: (§1) DNA-dependent binding (ABCD binding) was carried out using SPA technology with PPAR receptors. Tritium-labeled PPARα and PPARγ agonists were used as radioligands for generating displacement curves and IC50 values with compounds of the invention. Cotransfection assays were carried out in CV-1 cells. The reporter plasmid contained an acylCoA oxidase (AOX) PPRE and TK promoter upstream of the luciferase reporter cDNA. Appropriate PPARs and RXRα were constitutively expressed using plasmids containing the CMV promoter. […] In order to eliminate such interference, a GAL4 chimeric system was used in which the DNA binding domain of the transfected PPAR was replaced by that of GAL4, and the GAL4 response element was utilized in place of the AOX PPRE. Cotransfection efficacy was determined relative to PPARα agonist and PPARγ agonist reference molecules. Efficacies were determined by computer fit to a concentration-response curve, or in some cases at a single high concentration of agonist (10 μM). For binding or cotransfection studies with receptors other than PPARs, similar assays were carried out using appropriate ligands, receptors, reporter constructs, etc., for that particular receptor.
(§2) These studies were carried out to evaluate the ability of compounds of the invention to bind to and/or activate various nuclear transcription factors, particularly huPPARα (“hu” indicates “human”) and huPPARγ. These studies provide in vitro data concerning efficacy and selectivity of compounds of the invention. Furthermore, binding and cotransfection data for compounds of the invention were compared with corresponding data for marketed compounds that act on either huPPARα or huPPARγ.

huPPARγ = molecular target: T2, huPPARγ (Homo sapiens, UniProt P37231); assay: Cotransfection assay in CV-1 cells, huPPARγ; assay type: cell-based; parameters: Appropriate PPARs and RXRα were constitutively expressed using plasmids containing the CMV promoter; expressed in transfected cells; host or cells: CV-1 cells; settings: AOX PPRE luciferase reporter, relative to PPARγ agonist reference molecule, read-out: huPPARγ CTF Efficacy
T2 sequence (P37231 1-505): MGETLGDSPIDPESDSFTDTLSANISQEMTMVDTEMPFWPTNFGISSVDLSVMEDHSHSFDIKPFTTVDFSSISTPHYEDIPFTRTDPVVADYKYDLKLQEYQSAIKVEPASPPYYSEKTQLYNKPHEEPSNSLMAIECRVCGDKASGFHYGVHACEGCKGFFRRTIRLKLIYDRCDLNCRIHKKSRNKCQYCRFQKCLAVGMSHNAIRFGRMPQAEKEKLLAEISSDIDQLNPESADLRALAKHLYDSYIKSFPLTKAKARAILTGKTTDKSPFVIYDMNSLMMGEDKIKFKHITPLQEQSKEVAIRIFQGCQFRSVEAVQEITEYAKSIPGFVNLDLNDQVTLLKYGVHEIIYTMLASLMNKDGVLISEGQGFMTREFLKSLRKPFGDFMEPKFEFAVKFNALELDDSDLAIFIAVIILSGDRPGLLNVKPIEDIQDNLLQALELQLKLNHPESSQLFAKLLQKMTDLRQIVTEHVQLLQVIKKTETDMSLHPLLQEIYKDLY
T2 sequence (P19793 1-462 partner): T1 sequence (P19793 1-462 partner)
Experimental: as §1, §2

Cc1oc(-c2ccccc2)nc1CCOc1ccc(CC(C)(Oc2ccc3c(c2)OCO3)C(=O)O)cc1 (centres unmarked) [Example 78, 2-(Benzo[1,3]dioxol-5-yloxy)-2-methyl-3-{4-[2-(5-methyl-2-phenyl-oxazol-4-yl)-ethoxy]-phenyl}-propionic acid]
IC50 (huPPARα): 75 nM
Emax (huPPARγ): 17%

Cc1oc(C2(C)CCCCC2)nc1CCOc1ccc(CC(C)(Oc2ccccc2)C(=O)O)cc1 (centres unmarked) [Example 9, 2-Methyl-3-(4-{2-[5-methyl-2-(1-methylcyclohexyl)oxazol-4-yl]ethoxy}phenyl)-2-phenoxypropionic acid]
IC50 (huPPARα): 41 nM
Emax (huPPARγ): 73%

Cc1oc(C2CCCCC2)nc1CCOc1ccc(CC(C)(Oc2ccc(F)c(F)c2)C(=O)O)cc1 (centres unmarked) [Example 58, 3-{4-[2-(2-Cyclohexyl-5-methyl-oxazol-4-yl)-ethoxy]-phenyl}-2-(3,4-difluoro-phenoxy)-2-methyl-propionic acid]
IC50 (huPPARα): 60 nM
Emax (huPPARγ): 41%

Cc1oc(C2CCCCC2)nc1CCOc1ccc(CC(C)(Oc2ccc(F)cc2)C(=O)O)cc1 (centres unmarked) [Example 65, 3-{4-[2-(2-Cyclohexyl-5-methyl-oxazol-4-yl)-ethoxy]-phenyl}-2-(4-fluoro-phenoxy)-2-methyl-propionic acid]
IC50 (huPPARα): 71 nM
Emax (huPPARγ): 24%

Cc1oc(-c2cccs2)nc1CCOc1ccc(CC(C)(Oc2ccc(F)cc2)C(=O)O)cc1 (centres unmarked) [Example 64, 2-(4-Fluoro-phenoxy)-2-methyl-3-{4-[2-(5-methyl-2-thiophen-2-yl-oxazol-4-yl)-ethoxy]-phenyl}-propionic acid]
IC50 (huPPARα): 67 nM
Emax (huPPARγ): 11%

Cc1cccc(OC(C)(Cc2ccc(OCCc3nc(C4CCCCC4)oc3C)cc2)C(=O)O)c1 (centres unmarked) [Example 62, 3-{4-[2-(2-Cyclohexyl-5-methyl-oxazol-4-yl)-ethoxy]-phenyl}-2-methyl-2-m-tolyloxy-propionic acid]
IC50 (huPPARα): 58 nM
Emax (huPPARγ): 35%

Cc1oc(C2CCCCC2)nc1CCOc1ccc(CC(C)(Oc2ccc3c(c2)OCO3)C(=O)O)cc1 (centres unmarked) [Example 80, 2-(Benzo[1,3]dioxol-5-yloxy)-3-{4-[2-(2-cyclohexyl-5-methyl-oxazol-4-yl)-ethoxy]-phenyl}-2-methyl-propionic acid]
IC50 (huPPARα): 76 nM
Emax (huPPARγ): 30%

Cc1ccc(OC(C)(Cc2ccc(OCCc3nc(-c4cccs4)oc3C)cc2)C(=O)O)cc1 (centres unmarked) [Example 40, 2-Methyl-3-{4-[2-(5-methyl-2-thiophen-2-yl-oxazol-4-yl)-ethoxy]-phenyl}-2-p-tolyloxy-propionic acid]
IC50 (huPPARα): 50 nM
Emax (huPPARγ): 110%

Cc1oc(-c2ccccc2)nc1CCCc1ccc(CC(C)(Oc2ccccc2)C(=O)O)s1 (centres unmarked) [Example 91, 2-Methyl-3-{5-[3-(5-methyl-2-phenyl-oxazol-4-yl)-propyl]-thiophen-2-yl}-2-phenoxy-propionic acid]
IC50 (huPPARα): 215 nM
Emax (huPPARγ): 62%

Cc1oc(-c2cccs2)nc1CCOc1ccc(CC(C)(Oc2ccccc2F)C(=O)O)cc1 (centres unmarked) [Example 27, 2-(2-Fluoro-phenoxy)-2-methyl-3-{4-[2-(5-methyl-2-thiophen-2-yl-oxazol-4-yl)-ethoxy]-phenyl}-propionic acid]
IC50 (huPPARα): 75 nM
Emax (huPPARγ): 15%
